Source: patent US8163805B2, “Small molecule antagonists of Bcl-2 family proteins” (The Regents of the University of Michigan, priority 2001, dated 2012)
Where two headings read alike, the source gives them in different places. Blank lines part the entries; values can stand above or below the molecule they belong to.

What was measured:
[1] = target: T1, Bcl-XL (Homo sapiens, UniProt Q07817, DEL45-84); test: FP binding assay, Flu-Bak-BH3 16-mer tracer and His-fused Bcl-XL; details: FIG. 3, 6A, 6B
T1 construct: His-tag (N); made in house

[2] = tested on: androgen-independent prostate PC-3 xenograft; test: PC-3 xenograft, (−)-gossypol and radiation (Example 20); format: in vivo, nude mice; details: Table 15; mice treated with gossypol and/or radiation
Procedure: In this experiment, 60 male 5 to 6 week old NCI athymic NCr-nu/nu nude mice were inoculated in each flank with an injection of about 5×10^6 PC-3 cells. The best 40 xenograft recipients were used. Tumors averaged about 70 mm^3. (−)-Gossypol compounds were first dissolved in ethanol and diluted with sterile water within 5 min to a final ethanol concentration of 10% prior to each administration. Irradiated test animals were restrained, placed under the X-ray head, and covered with lead shields to ensure that the tumor area was exposed to radiation. All oral administrations of (−)-gossypol and 10% alcohol were given by gavage.
The 40 best xenograft mice were divided into experimental groups as follows: radiation only (Groups 1 and 2), 2 Gy administered 5 times/week for 3 weeks, and daily oral administration of 10% alcohol (as vehicle control); radiation plus gossypol (Groups 3 and 4), 2 Gy administered 5 times a week for 3 weeks, and 10 mg/kg of (−)-gossypol administered orally 5 times/week for 4 weeks (8 mice each Group); gossypol only (Groups 5 and 6), 10 mg/kg (−)-gossypol administered orally every day for 4 weeks (8 mice each Group); vehicle control (Groups 7 and 8), daily oral administration of 10% alcohol (8 mice each Group as vehicle control); large tumor animals (combination of Groups 9-12), tumors allowed to reach 500 mm^3.
Other remaining tumors in this group appear pale yellowish and soft as compared with that in control group with hard solid and reddish appearance, indicating tumor blood supply was inhibited.

[3] = tested on: androgen independent prostate cancer PC-3 xenograft; test: PC-3 xenograft, (−)-gossypol alone and with docetaxel (Example 22); details: for weight loss: mice treated with gossypol
[4] = tested on: MDA-MB-231 cells; test: 5 day MTT cell growth assay, MDA-MB-231; format: cell-based, human; details: Homo sapiens, MDA-MB-231, 120 h, read-out: IC50, inhibition of MDA-MB-231 cell growth
[5] = tested on: human breast cancer xenograft MDA-MB-231; details: for inhibition of tumor growth: three weeks, day 29
[6] = tested on: MDA-MB-231 breast cancer cells; test: Annexin-V flow cytometry apoptosis, MDA-MB-231; format: cell-based, human; details: 24 hours
Procedure: Further tests using Annexin-V flow cytometry (FACS) assays were conducted to more quantitatively assess the ability of gossypol to induce apoptosis in MDA-MB-231 breast cancer cells. […] It was observed that 5.0 μM of gossypol induced 59% of the MDA-MB-231 cells to undergo apoptosis. While the present invention is not limited to a particular mechanism(s), it is contemplated that induction of apoptosis by gossypol is dose-dependent. At administrations of 10.0 and 20.0 μM, respectively, gossypol induced 74% and 96% of cancer cells, again respectively, to undergo apoptosis. MDA-MB-231 cells overexpress Bcl-2 and Bcl-XL.
In still further embodiments, the present invention used cell level detection of apoptotic events by flow cytometry. Cells that had undergone apoptotic events were detected by flow cytometry using a FACSCAN instrument (Becton Dickinson, Franklin Lakes, N.J.) with 488-nm laser line and analyzed using CELL QUEST software (Becton Dickinson, Franklin Lakes, N.J.). Phosphatidylserine exposed on the outside of the cells (one of the major characteristics of apoptosis) was determined by TACSTM Annexin V-FITC Kit (Trevigen, Gaithersburg, Md.). Annexin V-FITC fluorescence is detected in FL-1, and propidium iodide was detected in FL-2. (Hail Jr., and R. Lotan, R. Cancer Epidemiol. Biomarkers Prev., 9:1293-1301 (2000)).
Apoptosis was further detected and quantified using Annexin-V-fluorescence assays. […] Cells were collected and washed with PBS and stained with Annexin-V-Fluorescein and propidium iodide (PI) following standard protocols. Stained cells were analyzed with a flow cytometer (Becton Dickinson) using 488 nm excitation and a 515 nm bandpass filter for fluorenscein detection, and a >600 nm filter for PI detection.

[7] = tested on: A549 non-small cell lung carcinoma xenograft; test: A549 non-small cell lung carcinoma xenograft, (−)-gossypol with paclitaxel; details: Table 13; mice treated with gossypol and/or Paclitaxel
[8] = tested on: human breast cancer MDA-MB-231 (2LMP) xenograft
[9] = tested on: PC-3 xenograft; details: Table 14; mice treated with gossypol and/or radiation
[10] = target: T2, Bcl-2 (Homo sapiens, UniProt P10415); test: FP binding assay, Flu-Bad-25 peptide and GST-fusion Bcl-2 (FIG. 4, 45)
T2 construct: purchased Santa Cruz Biotechnology

[11] = target: T1, Bcl-XL; test: 15N HSQC NMR binding to Bcl-XL
[12] = target: T1, Bcl-XL; test: FP binding assay, Flu-Bid 21-residue peptide and Bcl-XL (FIG. 5, 46)
[13] = tested on: MCF-7 breast cancer cell line; test: Growth inhibition with TAXOL in fixed ratio, MCF-7; format: cell-based, human; details: combinations in a fixed ratio to TAXOL
[14] = Elimination half-life in humans; format: in vivo
Description: In some embodiments, the present invention contemplates that the longer residency of the (+)-gossypol enantiomer is potentially beneficial in certain prolonged gossypol treatments methods. Therefore, in some embodiments, the (+)-gossypol enantiomer is potentially more toxic to cells. […]

[15] = Table 8, docetaxel 7.5 mg/kg i.v. q week for 3 weeks, alone

T1 sequence (Q07817 with tags, fused parts or gaps DEL45-84 limits assumed): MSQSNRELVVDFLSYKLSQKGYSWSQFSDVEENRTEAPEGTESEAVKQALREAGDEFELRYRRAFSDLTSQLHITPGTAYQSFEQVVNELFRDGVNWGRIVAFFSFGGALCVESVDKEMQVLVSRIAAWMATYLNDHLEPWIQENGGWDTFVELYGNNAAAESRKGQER
T2 sequence (P10415 1-205 limits assumed): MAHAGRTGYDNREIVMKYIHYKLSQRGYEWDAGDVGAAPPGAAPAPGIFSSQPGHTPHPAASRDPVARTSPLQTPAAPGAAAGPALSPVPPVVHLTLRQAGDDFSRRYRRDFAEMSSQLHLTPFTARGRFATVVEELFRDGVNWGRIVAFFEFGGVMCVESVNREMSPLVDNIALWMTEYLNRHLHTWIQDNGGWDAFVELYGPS

Structure (SMILES): CC1=C(C2=C(C)C(=O)c3c(c(C=O)c(O)c(O)c3C(C)C)C2=O)C(=O)c2c(C=O)c(O)c(O)c(C(C)C)c2C1=O (racemic) [gossypolone]
inhibition of binding between Bak BH3 peptide and Bcl-XL [1]: competitive inhibition of Bak BH3 peptide binding to Bcl-XL protein

Structure (SMILES): Cc1cc2c(C(C)C)c(O)c(O)c(C=O)c2c(O)c1-c1c(C)cc2c(C(C)C)c(O)c(O)c(C=O)c2c1O (racemic) [gossypol]
weight loss [2]: There was no significant weight loss
tumor growth inhibition on day 42 ([3]; Table 9, PC-3 flank xenografts (~100 mm^3 at start), NCr-nu nude mouse, 15 mg/kg daily p.o., alone): (15.6% on day 42). The (−)-gossypol
weight loss ([3]; Table 9): There was no weight loss in mice
tumor growth inhibition on day 56 compared to vehicle controls ([3]; Table 10, PC-3 flank xenografts (~120 mm^3 at start), NCr-nu nude mouse, daily p.o. for 28 days, alone (racemic 15 mg/kg)): (39% on day 56, p = 0.145) compared
weight loss ([3]; Table 10): There was no weight loss in mice
IC50 [4]: 2 µM
inhibition of tumor growth ([5]; 30 mg/kg oral daily): more than 70%
inhibition of tumor growth ([5]; 90 mg/kg oral daily): more than 70%
weight loss or deaths ([5]; 30 and 90 mg/kg oral daily): No weight loss or deaths
cells induced to undergo apoptosis ([6]; 5.0 μM): 59%
cells induced to undergo apoptosis ([6]; 10.0 μM): 74%
cells induced to undergo apoptosis ([6]; 20.0 μM): 96%
weight loss [7]: There was no weight loss in mice
weight loss or death ([8]; Table 8, mice treated with gossypol): There was no weight loss or death in
weight loss [9]: There was no significant weight loss

Structure (SMILES): CC(=O)O[C@@]12CO[C@@H]1C[C@H](O)[C@@]1(C)C(=O)[C@H](O)C3=C(C)[C@@H](OC(=O)[C@H](O)[C@@H](NC(=O)OC(C)(C)C)c4ccccc4)C[C@@](O)([C@@H](OC(=O)c4ccccc4)[C@H]21)C3(C)C [Docetaxel, docetaxel, reference compound]
tumor growth inhibition [8, 15]: achieved about 70% tumor growth
tumors grew back, time after treatment stopped [8, 15]: back 2-3 weeks after treatment
tumor growth in second round of treatment ([8]; second round from day 45, tumors about 2,000 mm^3): continued to grow

Kd ([10]; FIG. 26): 0.0069 µM
Structure (SMILES): CSCC[C@H](NC(=O)[C@H](CCCNC(=N)N)NC(=O)[C@H](CCCNC(=N)N)NC(=O)[C@H](CC(C)C)NC(=O)[C@H](CCC(=O)O)NC(=O)[C@H](CCCNC(=N)N)NC(=O)CNC(=O)[C@H](Cc1ccc(O)cc1)NC(=O)[C@H](CCCNC(=N)N)NC(=O)[C@H](CCC(N)=O)NC(=O)[C@H](C)NC(=O)[C@H](C)NC(=O)[C@H](Cc1c[nH]c2ccccc12)NC(=O)[C@H](CC(C)C)NC(=O)[C@H](CC(N)=O)NC(=O)c1ccc2c(c1)C1(OC2=O)c2ccc(O)cc2Oc2cc(O)ccc21)C(=O)N[C@@H](CO)C(=O)N[C@@H](CC(=O)O)C(=O)N[C@@H](CCC(=O)O)C(=O)N[C@@H](Cc1ccccc1)C(=O)N[C@H](C(=O)N[C@@H](CC(=O)O)C(=O)N[C@@H](CO)C(=O)N[C@@H](Cc1ccccc1)C(=O)N[C@@H](CCCCN)C(=O)N[C@@H](CCCCN)C(=O)O)C(C)C [Bad 25-mer BH3 peptide, reference compound]

Structure (SMILES): CCN=Cc1c(O)c(O)c(C(C)C)c2cc(C)c(-c3c(C)cc4c(C(C)C)c(O)c(O)c(C=NCC)c4c3O)c(O)c12 [(−)-gossypol ethyl Schiff's base]
inhibition of binding between Bak BH3 peptide and Bcl-XL [1]: time-dependent inhibition

Structure (SMILES): Cc1cc2c(C(C)C)c(O)c(O)c(C=O)c2c(O)c1-c1c(C)cc2c(C(C)C)c(O)c(O)c(C=O)c2c1O [(+)-gossypol]
binding to Bcl-XL by NMR [11]: bind to the BH3 binding groove in Bcl-XL
inhibition of binding between Bad BH3 peptide and Bcl-XL [12]: directly inhibit binding between Bad BH3 peptide and Bcl-XL
IC50 [13]: 22.9 µM
T1/2 of elimination relative to (−)-gossypol [14]: 29 times
inhibition of binding between Bid BH3 peptide and Bcl-2 ([10]; FIG. 4): directly inhibit binding between Bid BH3 peptide and Bcl-2
